How the values were obtained:
[1] = test system: soil urease; test: Urea hydrolyzed vs. time in soil at elevated temperature (35° C.); type: biochemical; settings: soil at 35° C., 10 micrograms of urease inhibitor per gram of soil; for urease inhibiting effect at 35° C. (FIGURE, in words): sampled every two days, period of 12 days
Procedure: FIG. 1 is a graph of urea hydrolyzed vs. time at 35° C. using 10 micrograms of urease inhibitor per gram of soil.
Several representative N-alkyl-N-aryl phosphoric triamide compounds useful in the practice of this invention were tested to determine their relative effectiveness or urease inhibitors. The inhibition tests were run in a New York soil (Cazenovia sandy loam, pH 7.2). Evaluations (run in triplicate) consisted of applying 800 and 20 micrograms of test compound in 5 mL water and 42.8 mg urea in 1 mL water to 20 g air-dry soil in a glass bottle. The bottle was capped with perforated aluminum foil and incubated at 25° C. for 3 days prior to extraction with 100 mL 2M KCl containing 0.5 mg phenylmercuric acetate. The extracts were then analyzed for remaining urea using an auto analyzer. Percent inhibition was calculated as
Employing the procedure of EXAMPLES VII to IX a series of test were conducted to show improved efficiency of N-aliphatic-N-arylphosphoric triamides at elevated temperature as compared to the efficiency of phenylphosphorodiamidate, a prior art urease inhibitor. This test was conducted similarly to the test previously described, but soil samples were taken every two days and analyzed for urea content.

[2] = test system: soil urease; test: Soil urease inhibition test (urea remaining after incubation in Cazenovia sandy loam, 25° C., 3 days); type: biochemical; settings: for % Inhibition 20 μmg: 20 micrograms test compound per 20 g soil
Procedure: The inhibition tests were run in a New York soil (Cazenovia sandy loam, pH 7.2). […] The bottle was capped with perforated aluminum foil and incubated at 25° C. for 3 days prior to extraction with 100 mL 2M KCl containing 0.5 mg phenylmercuric acetate. The extracts were then analyzed for remaining urea using an auto analyzer. Percent inhibition was calculated as
% Inhibition=[-1(A-B/A-C)]×100
where A is urea recovered from unincubated sample (urea added to soil and immediately extracted); B is urea recovered from inhibited sample; and C is urea recovered from the control (uninhibited sample).

[3] = test system: soil urease; settings: stated for a known compound; cited from earlier work
[4] = Table II, procedure of Examples VII to IX
[5] = Table II, procedure of Examples VII to IX, 800 micrograms test compound per 20 g soil

Molecule	urease inhibiting effect at 35° C. (FIGURE, in words) [1]	% Inhibition 20 μmg [2, 4] [%]	% Inhibition 800 μmg [2, 5] [%]	further results
N-Methyl-N-(4-nitrophenyl) Phosphoric Triamide [IX]	excellent inhibitor			
NP(N)(=O)Nc1ccccc1 [Comp II]		19	74	
NP(N)(=O)Nc1ccc([N+](=O)[O-])cc1 [Comp I]		30	81	
COc1ccc(N(C)P(N)(N)=O)cc1 [VIII]				% Inhibition 800 μmg ([2]; Table I, 800 micrograms test compound + 42.8 mg urea per 20 g air-dry soil (pH 7.2), triplicate): 47%
NP(N)(=O)Oc1ccccc1 [phenyl phosphorodiamidate]	much less effective			time to essentially complete urea hydrolysis [1]: 6 days; urease inhibiting effect at 25° C. (in words) [3]: excellent urease inhibiting effect
